Read-outs that look alike come from different tables or passages of the source.
What was measured:
[1] = Hygroscopicity; type: physicochemical; conditions: solid
[2] = tested on: mice; assay: Behavioral despair models, mice; type: in vivo; conditions: single, multiple, and chronic administrations, unpublished data
[3] = tested on: rodent; assay: In vivo rodent studies (comparison with Vilazodone, sedation); conditions: rodent behavioral despair models; unpublished data
[4] = tested on: other subtypes of 5-HT receptors, histamine receptors, and acetylcholine receptors; assay: In vitro affinities or activities to other receptors; type: binding
[5] = Single ascending-dose (SAD) study, plasma pharmacokinetics; type: in vivo, human; conditions: for Cmax / AUC(0-t) / k el / AUC(0-inf) / MRT / Vd/F / half-life / Tmax: both sexes, human, oral; for Cmax: mean (SD), read-out: Cmax; for AUC(0-t) / k el / AUC(0-inf) / MRT / Vd/F / half-life / Tmax: plasma; for AUC(0-t): read-out: AUC0-t; for AUC(0-inf): read-out: AUC0-∞; for MRT: read-out: MRT; for Vd/F: read-out: Vz/F; for half-life: read-out: t1/2 (converted); for Tmax: read-out: Tmax
Method: The study comprised a total of 7 dose groups (2.5, 5, 10, 20, 40, 60, and 80 mg groups, respectively). The first dose group (2.5 mg) consisted of 8 subjects, with 6 receiving HEC113995PA·H2O and 2 receiving placebo. Dose groups 2–7 each included 10 subjects, with 8 subjects receiving HEC113995PA·H2O and 2 subjects receiving placebo. Male and female participants were randomly assigned to the groups. Serial blood samples were collected before and after drug administration to determine the plasma concentration of pharmacokinetics (PK) and to evaluate the pharmacokinetic characteristics. The time points of blood collection and safety evaluation of PK in the second to seventh dose groups were adjusted based on the results of the first dose group. Drug safety and tolerability were evaluated on day 2 and 4 in the first dose group and on day 4 and 7 in the second to seventh dose groups. The trial was conducted in a dose-escalation manner, with progression to the next dose arm only after the safety of the previous arm had been evaluated. In the fourth group (20 mg group), in addition to blood samples, urine and stool samples were also collected for in vivo drug metabolic transformation studies.
In the first dose group of single ascending-dose study, PK blood samples were collected at 0.5 h before administration and 0.5, 1, 1.5, 2, 2.5, 3, 4, 5, 6, 8, 10, 12, 24, 36, 48, and 72 h after administration. In other SAD groups, MAD groups and food effect study, PK blood samples were collected at 0.5 h before administration, and 1, 2, 3, 4, 5, 6, 7, 8, 10, 12, 24, 48, 72, 96, 120 and 144 h after administration. Approximately 4 mL of venous blood was obtained from each collection and placed in a vacuum collection vessel containing K2EDTA anticoagulant. The blood was centrifuged and packed according to the instruction provided by the Biological Sample Detection and Analysis Unit. Briefly, all samples were centrifuged at 4°C, 1,500 g for 10 min within 0.5 h after blood collection. After centrifugation, the plasma was aliquoted into two cryogenic storage tubes. The first tube (Tube A) contained at least 0.8 mL of plasma for analytical testing, and the remaining plasma is allocated into the backup tube (Tube B). The plasma samples were stored at −80°C within 1 h after aliquoting for further analysis.
The concentration of HEC113995PA·H2O in human plasma samples (K2EDTA) was quantitatively analyzed using the LC-MS/MS method. Plasma samples (50 μL) were processed using protein precipitation with 5 μL deuterated internal standard (HEC124659) and 100 μL acetonitrile. The Shimadzu LCMS-8060 system coupled with a GL Sciences Inc. InertSustain AQ-C18 HP column (50 × 2.1 mm, 3 μm) achieved chromatographic separation through gradient elution using 0.04% TFA aqueous solution (pH 2.1) and acetonitrile at 0.4 mL/min. ESI-positive mode detection employed optimized parameters: 300°C interface temperature, 250°C DL temperature, 3 L/min nebulizer gas, and 400°C heating block temperature.
Using WinNonlin 7.0 for non-compartmental analysis (NCA), pharmacokinetic (PK) parameters were meticulously calculated based on the actual sampling times for plasma, urine, and fecal samples from each subject post-administration. These parameters encompassed a comprehensive range, including the area under the concentration–time curve (AUC), AUC from time zero (pre-dose) to the time of the last measurable concentration (AUC0-t), and AUC from time zero (pre-dose) to infinity (AUC0-∞). Additionally, maximum observed plasma concentration (Cmax), time to achieve maximum plasma concentration (Tmax), terminal elimination half-life (t1/2), elimination rate constant (Ke), apparent volume of distribution (Vd/F), clearance rate (CL/F), and mean residence time (MRT) were also determined. The AUC0-t and AUC0-∞ values were computed using the linear trapezoidal rule method. Tmax and Cmax were ascertained based on the actual observed data. […]

[6] = SAD single dose 2.5 mg, N = 6, mean (SD)
[7] = SAD single dose 5 mg, N = 8, mean (SD)
[8] = across single-dose groups 2.5–80 mg

Cc1nc(-c2cnc(N3CCN(CCCc4c[nH]c5ccc(C#N)cc45)CC3)nc2)sc1C(N)=O [HEC113995PA·H2O]
hygroscopicity [1]: slight hygroscopicity | duration of immobility [2]: significantly reduce | efficacy relative to HEC61139 (Vilazodone) [3]: more potent efficacy | higher affinities towards SERT and the 5-HT1A receptor than other receptors ([4]; in vitro selectivity): over 100 fold | in vitro affinities or activities to other receptors ([4]; other 5-HT receptor subtypes, histamine and acetylcholine receptors, unpublished data): at the micromolar level | Cl/F [5, 6]: 12.03 (3.52) L/h | Cl/F [5, 7]: 10.94 (1.75) L/h | Cl/F ([5]; SAD single dose 10 mg, N = 8, mean (SD)): 12.65 (3.13) L/h | Cl/F ([5]; SAD single dose 20 mg, N = 8, mean (SD)): 14.53 (5.78) L/h | Cl/F ([5]; SAD single dose 40 mg, N = 8, mean (SD)): 14.14 (4.06) L/h | Cl/F ([5]; SAD single dose 60 mg, N = 8, mean (SD)): 15.07 (4.58) L/h | Cl/F ([5]; SAD single dose 80 mg, N = 8, mean (SD)): 14 (2.41) L/h | apparent clearance (CL/F), range of arithmetic means [5, 8]: 10.9380 to 15.0736 L/h | elimination rate constant (Kel), range of arithmetic means [5, 8]: 0.0187 to 0.0256 h⁻¹ | Cmax ([5]; SAD single dose 2.5 mg, N = 6, plasma): 5.27 ng/mL | Cmax ([5]; SAD single dose 5 mg, N = 8, plasma): 14 ng/mL | Cmax ([5]; SAD single dose 10 mg, N = 8, plasma): 24.4 ng/mL | Cmax ([5]; SAD single dose 20 mg, N = 8, plasma): 40.6 ng/mL | Cmax ([5]; SAD single dose 40 mg, N = 8, plasma): 88.5 ng/mL | Cmax ([5]; SAD single dose 60 mg, N = 8, plasma): 149 ng/mL | Cmax ([5]; SAD single dose 80 mg, N = 8, plasma): 164 ng/mL | AUC(0-t) ([5]; 2.5 mg, SAD single dose 2.5 mg, N = 6, mean (SD)): 177 ng·h/mL | AUC(0-t) ([5]; 5 mg, SAD single dose 5 mg, N = 8, mean (SD)): 439 ng·h/mL | AUC(0-t) ([5]; 10 mg, SAD single dose 10 mg, N = 8, mean (SD)): 801 ng·h/mL | AUC(0-t) ([5]; 20 mg, SAD single dose 20 mg, N = 8, mean (SD)): 1450 ng·h/mL | AUC(0-t) ([5]; 40 mg, SAD single dose 40 mg, N = 8, mean (SD)): 2910 ng·h/mL | AUC(0-t) ([5]; 60 mg, SAD single dose 60 mg, N = 8, mean (SD)): 4100 ng·h/mL | AUC(0-t) ([5]; 80 mg, SAD single dose 80 mg, N = 8, mean (SD)): 5650 ng·h/mL | k el [5, 6]: 6.39e-06 s⁻¹ | AUC(0-inf) [5, 6]: 220 ng·h/mL | MRT [5, 6]: 44.8 h | Vd/F [5, 6]: 518 L | half-life [5, 6]: 30.3 h | Tmax ([5]; SAD single dose 2.5 mg, N = 6, median (min, max)): 6 h | k el [5, 7]: 7.11e-06 s⁻¹ | AUC(0-inf) [5, 7]: 467 ng·h/mL | MRT [5, 7]: 39.8 h | Vd/F [5, 7]: 430 L | half-life [5, 7]: 27.2 h | Tmax ([5]; SAD single dose 5 mg, N = 8, median (min, max)): 5 h
